{"source": "patent US8524765B2", "about": "“Compounds that modulate intracellular calcium” (Calcimedica, Inc., priority 2007, dated 2013)", "key": {"[1]": {"target": "T1, hCav.1.2/β2/α2δ channels (Homo sapiens, UniProt Q13936)", "T1 construct": "host or cells: CHO cells", "T1 sequence (Q13936 whole entry)": "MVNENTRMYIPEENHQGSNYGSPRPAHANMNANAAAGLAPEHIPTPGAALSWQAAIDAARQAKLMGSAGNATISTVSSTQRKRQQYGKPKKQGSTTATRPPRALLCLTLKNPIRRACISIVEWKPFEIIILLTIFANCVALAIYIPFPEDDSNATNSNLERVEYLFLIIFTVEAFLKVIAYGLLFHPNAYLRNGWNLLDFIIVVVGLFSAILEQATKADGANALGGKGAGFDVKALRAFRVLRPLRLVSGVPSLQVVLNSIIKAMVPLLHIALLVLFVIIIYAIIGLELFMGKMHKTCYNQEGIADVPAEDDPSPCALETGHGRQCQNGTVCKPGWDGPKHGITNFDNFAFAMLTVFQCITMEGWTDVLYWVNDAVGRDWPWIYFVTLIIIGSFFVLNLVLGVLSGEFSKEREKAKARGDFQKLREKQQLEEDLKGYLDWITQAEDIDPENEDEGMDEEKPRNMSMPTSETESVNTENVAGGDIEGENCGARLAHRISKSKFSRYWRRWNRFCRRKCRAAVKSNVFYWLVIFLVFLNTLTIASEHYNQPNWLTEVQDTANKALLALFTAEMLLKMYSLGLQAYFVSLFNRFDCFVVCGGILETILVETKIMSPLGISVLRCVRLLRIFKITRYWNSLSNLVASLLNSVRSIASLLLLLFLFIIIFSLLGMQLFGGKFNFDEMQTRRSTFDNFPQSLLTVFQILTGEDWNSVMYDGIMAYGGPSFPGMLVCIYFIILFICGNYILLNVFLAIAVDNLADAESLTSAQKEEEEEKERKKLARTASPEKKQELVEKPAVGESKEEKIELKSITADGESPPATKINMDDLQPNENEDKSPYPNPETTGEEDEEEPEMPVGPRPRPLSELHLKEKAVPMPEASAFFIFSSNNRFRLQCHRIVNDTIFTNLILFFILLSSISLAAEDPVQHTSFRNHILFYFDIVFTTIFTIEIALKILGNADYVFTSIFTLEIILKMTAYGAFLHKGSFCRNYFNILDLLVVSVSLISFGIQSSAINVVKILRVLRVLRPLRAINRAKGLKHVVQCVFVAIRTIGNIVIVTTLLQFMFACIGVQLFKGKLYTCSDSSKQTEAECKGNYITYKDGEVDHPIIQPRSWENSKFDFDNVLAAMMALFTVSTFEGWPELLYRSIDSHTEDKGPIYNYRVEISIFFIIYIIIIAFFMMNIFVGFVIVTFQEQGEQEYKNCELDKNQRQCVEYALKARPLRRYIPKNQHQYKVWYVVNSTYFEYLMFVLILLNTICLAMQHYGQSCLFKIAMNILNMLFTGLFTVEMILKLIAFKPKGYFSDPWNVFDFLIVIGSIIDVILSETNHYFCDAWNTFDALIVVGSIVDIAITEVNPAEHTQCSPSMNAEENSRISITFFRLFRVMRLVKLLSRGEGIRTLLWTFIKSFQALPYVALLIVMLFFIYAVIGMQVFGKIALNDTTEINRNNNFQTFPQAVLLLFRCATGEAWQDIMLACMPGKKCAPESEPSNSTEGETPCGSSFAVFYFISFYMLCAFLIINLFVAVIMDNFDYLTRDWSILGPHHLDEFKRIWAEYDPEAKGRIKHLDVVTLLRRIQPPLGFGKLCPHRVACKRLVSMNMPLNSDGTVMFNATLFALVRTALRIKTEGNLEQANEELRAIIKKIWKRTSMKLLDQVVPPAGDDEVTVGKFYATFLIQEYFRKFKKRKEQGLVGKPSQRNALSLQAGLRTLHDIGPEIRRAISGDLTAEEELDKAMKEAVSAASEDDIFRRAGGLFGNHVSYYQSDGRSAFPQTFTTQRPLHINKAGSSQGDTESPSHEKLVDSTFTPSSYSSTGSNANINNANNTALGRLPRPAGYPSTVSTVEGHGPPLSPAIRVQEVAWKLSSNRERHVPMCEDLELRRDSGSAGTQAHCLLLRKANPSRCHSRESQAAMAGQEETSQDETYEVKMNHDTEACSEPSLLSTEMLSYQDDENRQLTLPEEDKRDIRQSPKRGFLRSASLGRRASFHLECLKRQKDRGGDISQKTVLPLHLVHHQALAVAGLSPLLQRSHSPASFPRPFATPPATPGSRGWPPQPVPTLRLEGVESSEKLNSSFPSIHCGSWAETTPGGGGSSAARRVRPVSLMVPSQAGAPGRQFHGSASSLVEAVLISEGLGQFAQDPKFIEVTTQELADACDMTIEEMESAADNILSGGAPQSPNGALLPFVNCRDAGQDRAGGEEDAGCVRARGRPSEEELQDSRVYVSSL", "T1 sequence (Q08289 whole entry partner)": "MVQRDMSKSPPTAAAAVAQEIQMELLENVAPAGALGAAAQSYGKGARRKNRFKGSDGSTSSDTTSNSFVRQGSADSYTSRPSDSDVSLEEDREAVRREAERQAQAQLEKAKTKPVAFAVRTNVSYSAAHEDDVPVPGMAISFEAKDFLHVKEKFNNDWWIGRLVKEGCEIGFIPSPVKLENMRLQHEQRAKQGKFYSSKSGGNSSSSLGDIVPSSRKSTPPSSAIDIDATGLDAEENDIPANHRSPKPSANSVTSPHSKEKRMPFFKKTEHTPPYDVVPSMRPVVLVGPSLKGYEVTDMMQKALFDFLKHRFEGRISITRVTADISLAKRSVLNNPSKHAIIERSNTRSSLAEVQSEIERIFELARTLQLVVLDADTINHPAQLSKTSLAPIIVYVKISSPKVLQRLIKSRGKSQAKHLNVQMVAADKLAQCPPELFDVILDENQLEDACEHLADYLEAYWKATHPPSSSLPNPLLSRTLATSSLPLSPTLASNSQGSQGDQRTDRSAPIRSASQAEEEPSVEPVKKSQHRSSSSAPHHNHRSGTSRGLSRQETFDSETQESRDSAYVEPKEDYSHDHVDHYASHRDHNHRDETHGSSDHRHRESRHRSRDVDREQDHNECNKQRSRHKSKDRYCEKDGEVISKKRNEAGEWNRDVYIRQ", "T1 sequence (P54289 25-1103 partner)": "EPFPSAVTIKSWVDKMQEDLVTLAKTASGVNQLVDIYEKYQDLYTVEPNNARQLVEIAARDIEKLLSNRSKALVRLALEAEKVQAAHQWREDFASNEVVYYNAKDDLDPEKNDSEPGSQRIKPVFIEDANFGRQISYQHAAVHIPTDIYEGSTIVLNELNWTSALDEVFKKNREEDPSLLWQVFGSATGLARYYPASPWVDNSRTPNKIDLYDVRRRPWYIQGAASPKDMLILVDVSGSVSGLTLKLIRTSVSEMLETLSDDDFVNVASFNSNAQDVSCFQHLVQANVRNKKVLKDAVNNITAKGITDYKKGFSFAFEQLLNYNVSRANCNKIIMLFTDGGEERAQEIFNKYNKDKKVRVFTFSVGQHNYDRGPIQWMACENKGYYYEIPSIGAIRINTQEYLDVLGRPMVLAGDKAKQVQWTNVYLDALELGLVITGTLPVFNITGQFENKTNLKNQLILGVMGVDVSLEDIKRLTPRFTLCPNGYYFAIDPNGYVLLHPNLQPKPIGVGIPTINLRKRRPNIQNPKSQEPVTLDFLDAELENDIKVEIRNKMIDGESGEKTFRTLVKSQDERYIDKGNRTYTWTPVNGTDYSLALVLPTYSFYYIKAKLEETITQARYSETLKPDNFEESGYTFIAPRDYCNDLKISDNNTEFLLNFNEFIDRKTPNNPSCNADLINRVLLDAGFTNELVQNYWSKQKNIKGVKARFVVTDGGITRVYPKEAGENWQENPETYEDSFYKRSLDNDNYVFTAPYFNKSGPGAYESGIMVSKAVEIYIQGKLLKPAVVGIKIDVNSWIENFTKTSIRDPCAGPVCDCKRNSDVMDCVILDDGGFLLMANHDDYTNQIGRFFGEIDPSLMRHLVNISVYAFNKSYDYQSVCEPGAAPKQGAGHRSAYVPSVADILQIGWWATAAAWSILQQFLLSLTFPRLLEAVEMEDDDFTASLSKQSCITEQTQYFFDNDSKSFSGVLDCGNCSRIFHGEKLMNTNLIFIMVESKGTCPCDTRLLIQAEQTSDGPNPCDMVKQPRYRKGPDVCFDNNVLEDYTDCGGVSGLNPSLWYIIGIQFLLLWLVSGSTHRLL", "assay": "Cloned L-type calcium channels in CHO cells (PatchXpress patch clamp)", "type": "cell-based", "details": "FIG. 16", "method": "Compound A stock solutions were prepared in dimethyl sulfoxide (DMSO) and stored frozen. Compound A concentrations were prepared fresh daily by diluting stock solutions into an appropriate HEPES-buffered physiological saline solution. Each test compound formulation was sonicated at room temperatrue for at least 20 minutes to facilitate dissolution. A glass-lined 96-well compound plate was loaded with the appropriate amounts of test and control solutions, and placed in the plate well of PatchXpress®. The effects of five concentrations were evaluated. Stock solutions of the positive control were prepared in batches and frozen. The positive control concentration was prepared fresh daily by diluting stock solutions into HB-PS. The final DMSO concentration was 0.3%.\nCells were maintained in tissue culture incubators per ChanTest SOP. […]\nIn preparation for a recording session, intracellular solution was loaded into the intracellular compartments of the planar electrode. After establishment of a whole-cell configuration, membrane currents were recorded using dual-channel patch clamp amplifiers in the PatchXpress® system. […] Onset and steady state block of hCav.1.2/β2/α2δ channels were measured using a stimulus voltage pattern consisting of a depolarizing test pulse at 10 s intervals from a −80 mV holding potential. […] Peak current was measured during the step to 10 mV. […]"}, "[2]": {"test_system": "RBL-2H3 cells", "assay": "Degranulation (β-hexosaminidase release) assay", "type": "cell-based", "details": "Rattus norvegicus", "method": "To assess degranulation and cytokine release, RBL-2H3 cells were plated and stimulated with 20 nM thapsigargin/20 nM TPA for 20 hr in the presence or absence of compound of Formula (I) or Formula (II). Media was collected and assayed for the release of β-hexosaminidase or for the release of the inflammatory mediator cytokine TNF-α. The β-hexosaminidase enzymatic assay was performed by adding 200 μL 1 mM p-nitrophenyl-acetyl-glucosamide substrate (Sigma #N9376) in 0.05M Na Citrate (pH 4.5) to 50 μL of conditioned medium, incubating for 60 min at 37° C., then adding 500 μL 0.05M Na carbonate, 0.05M Na bicarbonate pH 10.5, mixing thoroughly, and reading the absorbance at 405 nm in a BioRad plate reader. The TNF-α release assay was performed using the Rat Tumor Necrosis Factor-a Ultrasensitive ELISA Kit from BioSource."}, "[3]": {"test_system": "Jurkat T cells", "assay": "IL-2 secretion from Jurkat T cells (PHA+TPA, ELISA)", "type": "cell-based", "method": "To measure IL-2 secretion from Jurkat T cells, cells were plated in a 96 well plate at a density of 1.5×10^5 cells/well. Cells were stimulated with 2.5 μg/ml PHA lectin+80 nM TPA for 20 hr in the presence or absence of a compound of Formula (I) or Formula (II). The medium was then collected and analyzed for IL-2 levels by ELISA (BioSource) according to the manufacturer's protocols."}, "[4]": {"assay": "Rat collagen induced arthritis (CIA) model, liver weight", "type": "in vivo", "details": "given orally, FIG. 11", "procedure": "40 rats are injected with collagen to get 40 solid responders on days 10,11 for 4 groups of 10. Four nonimmunized animals serve as normal controls.\nCollagen is prepared by making a 4 mg/ml solution in 0.01N Acetic acid. Equal volumes of collagen and Freund's incomplete adjuvant, are emulsified by hand mixing until a bead of this material holds its form when placed in water.\nAnimals (10 rats/group for arthritis, 4 rats/group for normal control).\nAnimals in groups 2-5 are anesthetized with isoflurane and given collagen injections (DO); each animal gets 300 μl of the mixture spread over 3 subcutaneous sites on the back. On Day 6 (D6) the animals are anesthetized again and given a second collagen injection, as before.\nRats are weighed on Days 0, 3, 6, and 9-17 of arthritis, and caliper measurements of ankles taken every day beginning on Day 9. Final body weights are taken on Day 17 of arthritis. On Day 17, all animals are anesthetized for terminal blood draw and then euthanized. Subsequently, hind paws and knees are removed, the hind paws are weighed and then (with knees) placed in formalin for processing for microscopy. Livers, spleen and thymus and kidneys are also removed, trimmed of extraneous tissue and weighed. Kidneys are retained in formalin for histopathology.\nSampling will occur over 1 day and involves groups 2-5 with samples retained from all groups."}}, "note": "pIC50: −log10 of the molar value. Where two headings read alike, the source gives them in different places."}
{"smiles": "O=C(Nc1scc(-c2ccc(Br)cc2)c1C(=O)O)c1ccc(F)cc1", "note": "[Compound 1, 2-(4-fluorobenzamido)-4-(4-bromophenyl)thiophene-3-carboxylic acid]", "values": [{"measurement": "effect on recombinant Cav1.2 L-type Ca2+ channels", "setting": "[1]", "value": "inhibits"}, {"measurement": "pIC50", "setting": "[2]; RBL-2H3, 2 hour TG/TPA induction in HBSS+1% serum, 10 minute pretreatment, FIG. 4, read-out: IC50 for inhibition of degranulation, presence of serum", "value": "5.52 to 6.00"}, {"measurement": "pIC50", "setting": "[2]; RBL-2H3, 2 hour TG/TPA induction in HBSS, 10 minute pretreatment, FIG. 4, read-out: apparent IC50 for inhibition of degranulation, absence of serum", "value": "> 6.52"}, {"measurement": "pIC50", "setting": "[2]; RBL-2H3 cells induced with TG/TPA, FIG. 3, read-out: IC50 for inhibition of degranulation", "value": 5.59}, {"measurement": "pIC50", "setting": "[3]; Homo sapiens, Jurkat T cells stimulated with PHA+TPA, FIG. 7, read-out: IC50 for inhibition of IL-2 release", "value": "~6.30"}, {"measurement": "effect of combination with cyclosporin A on IL-2 secretion", "setting": "[3]; Jurkat T cells stimulated with PHA/TPA, Compound 1 together with cyclosporin A, FIG. 10", "value": "additive effects"}, {"measurement": "reduction in liver weight", "setting": "[4]", "value": "no liver weight reduction"}]}
